Target: T1, glucokinase (GK), residues 12-465 of the human enzyme (Homo sapiens, UniProt P35557)
T1 construct: I.D. No. 1 corresponds to residues 12-465 of glucokinase; made in house; host or cells: E. coli DH10b-Tlr
T1 sequence (P35557 with tags, fused parts or gaps isoform P35557-2): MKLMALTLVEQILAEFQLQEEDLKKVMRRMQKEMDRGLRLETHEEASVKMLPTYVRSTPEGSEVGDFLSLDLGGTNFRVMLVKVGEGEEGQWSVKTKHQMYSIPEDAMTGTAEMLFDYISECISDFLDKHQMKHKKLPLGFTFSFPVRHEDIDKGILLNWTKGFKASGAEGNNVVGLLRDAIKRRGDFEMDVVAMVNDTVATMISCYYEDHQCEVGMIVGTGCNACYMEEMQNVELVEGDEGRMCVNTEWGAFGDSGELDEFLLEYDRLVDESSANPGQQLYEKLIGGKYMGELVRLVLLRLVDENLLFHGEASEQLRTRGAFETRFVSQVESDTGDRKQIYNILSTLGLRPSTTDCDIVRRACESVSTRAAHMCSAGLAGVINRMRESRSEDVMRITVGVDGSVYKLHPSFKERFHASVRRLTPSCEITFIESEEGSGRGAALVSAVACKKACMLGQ
Assay: Enzymatic glucokinase activity assay (KinaseGlo luminescence, ATP consumption)
Type: biochemical
Conditions: 5 μM ATP, 5 mM Glucose; for EC50: GK activation, Kact = concentration giving 50% of the maximal increase in GK activity, read-out: pKact; for Emax: calculated maximal gain in GK enzyme activity at a saturating concentration of the compound, read-out: % ACTmax
Text: The activity of compounds as glucokinase activators may be assayed in vitro, in vivo or in a cell line. Provided below is an enzymatic glucokinase activity assay.
Purified glucokinase may be obtained as follows. DNA encoding residues 12-465 of the full-length sequence of the human enzyme may be amplified by PCR and cloned into the HindIII and EcoRI sites of pFLAG-CTC (Sigma). SEQ. I.D. No. 1 corresponds to residues 12-465 of glucokinase.
The expression of recombinant glucokinase protein may be carried out by transformation and growth of DH10b-Tlr E. coli cells incorporating the (pFLAG-CTC) plasmid in LB media. Protein expression can be induced in this system by the addition of IPTG to the culture medium.
Recombinant protein may be isolated from cellular extracts by passage over Sepharose Q Fast Flow resin (Pharmacia). This partially purified GK extract may then be further purified by a second passage over Poros HQ 10 (Applied Biosystems). The purity of GK may be determined on denaturing SDS-PAGE gel. Purified GK may then be concentrated to a final concentration of 20.0 mg/ml. After flash freezing in liquid nitrogen, the proteins can be stored at −78° C. in a buffer containing 25 mM TRIS-HCl pH 7.6, 50 mM NaCl, and 0.5 mM TCEP.
The activation properties of compounds for GK may be determined using a black 384-well-plate format under the following reaction conditions: 25 mM Hepes pH 7.2, 25 mM NaCl, 10 mM MgCl2, 0.01% Brij35, 1 mM DTT, 5 μM ATP, 5 mM Glucose 2% DMSO. The amount of ATP consumed may be determined quantitatively by addition of equal volume of luciferase reagent (luciferase+beetle luciferin—KinaseGlo Luminescent Kinase Assay kit from Promega). The luminescence intensity may be measured by using the Analyst HT from LJL Biosystems.
The assay reaction may be initiated as follows: 4 μl of substrate mixture (12.5 μM ATP and 12.5 mM Glucose) was added to each well of the plate, followed by the addition of 2 μl of activator (2 fold serial dilutions for 11 data points for each activator) containing 10% DMSO. 4 μL of 1.25 nM GK solution may be added to initiate the reaction. The reaction mixture may then be incubated at room temperature for 60 min, and quenched and developed by addition of 10 μL of luciferase reagent. Luminescence intensities of the resulting reaction mixtures may be measured after a 10 min incubation at room temperature. The luminescence intensity may be measured by using the Analyst HT from LJL Biosystems.
pKact and % ACTmax values may be calculated by non-linear curve fitting of the compound concentrations and luminescence intensities to a standard inhibition/activation equation.

For `Cc1oncc1S(=O)(=O)N1CCN([C@@H](CC2CCCCC2)C(=O)Nc2nccs2)C(=O)C1` [Example 60, (S)-3-cyclohexyl-2-(4-(5-methylisoxazol-4-ylsulfonyl)-2-oxopiperazin-1-yl)-N-(thiazol-2-yl)propanamide], the EC50 was 0.794 to 1.26 µM and the Emax was ≤ 74%.

For `O=C(Nc1nccs1)[C@H](CC1CCCCC1)N1CCN(C(=S)NCc2ccc(F)cc2)CC1=O` [Example 120, (S)-3-cyclohexyl-2-(4-(4-fluorobenzylcarbamothioyl)-2-oxopiperazin-1-yl)-N-(thiazol-2-yl)propanamide], the EC50 was 0.794 to 1.26 µM and the Emax was 108 to 119%.

With `Cc1cc(S(=O)(=O)N2CCN([C@@H](CC3CCCCC3)C(=O)Nc3nccs3)C(=O)C2)c(Cl)cc1Cl` [Example 221, (S)-3-cyclohexyl-2-(4-(2,4-dichloro-5-methylphenylsulfonyl)-2-oxopiperazin-1-yl)-N-(thiazol-2-yl)propanamide] the EC50 was 1.58 to 2.51 µM and the Emax was ≤ 74%.

With `Cc1n[nH]c(C)c1S(=O)(=O)N1CCN([C@@H](CC2CCCCC2)C(=O)Nc2nccs2)C(=O)C1` [Example 111, (S)-3-cyclohexyl-2-(4-(3,5-dimethyl-1H-pyrazol-4-ylsulfonyl)-2-oxopiperazin-1-yl)-N-(thiazol-2-yl)propanamide] the EC50 was ≥ 3.16 µM and the Emax was ≥ 119%.

Work on `Cc1cc(S(=O)(=O)N2CCN([C@@H](CC3CCCCC3)C(=O)Nc3nccs3)C(=O)C2)c(C(F)(F)F)o1` [Example 160, (S)-3-cyclohexyl-2-(4-(5-methyl-2-(trifluoromethyl)furan-3-ylsulfonyl)-2-oxopiperazin-1-yl)-N-(thiazol-2-yl)propanamide] yielded an EC50 of 1.58 to 2.51 µM and an Emax of 108 to 119%.

Work on `O=C(Nc1nccs1)[C@H](CC1CCCCC1)N1CCN(C(=S)NCCN2CCOCC2)CC1=O` [Example 117, (S)-3-cyclohexyl-2-(4-(2-morpholinoethylcarbamothioyl)-2-oxopiperazin-1-yl)-N-(thiazol-2-yl)propanamide] yielded an EC50 of 1.58 to 2.51 µM and an Emax of 97.1 to 107%.

With `O=C(Nc1nccs1)[C@H](CC1CCCCC1)N1CCN(C(=O)Nc2ccc(Cl)c(Cl)c2)CC1=O` [Example 131, (S)-4-(3-cyclohexyl-1-oxo-1-(thiazol-2-ylamino)propan-2-yl)-N-(3,4-dichlorophenyl)-3-oxopiperazine-1-carboxamide] the EC50 was ≥ 3.16 µM and the Emax was ≤ 74%.

In the case of `O=C(Nc1nccs1)[C@H](CC1CCCCC1)N1CCN(S(=O)(=O)Cc2ccc(Cl)c(Cl)c2)CC1=O` [Example 211, (S)-3-cyclohexyl-2-(4-(3,4-dichlorobenzylsulfonyl)-2-oxopiperazin-1-yl)-N-(thiazol-2-yl)propanamide], the EC50 is reported as 1.58 to 2.51 µM and the Emax is reported as ≤ 74%.

With `Cc1cccc(S(=O)(=O)N2CCN([C@@H](CC3CCCCC3)C(=O)Nc3nccs3)C(=O)C2)c1` [Example 192, (S)-3-cyclohexyl-2-(2-oxo-4-(m-tolylsulfonyl)piperazin-1-yl)-N-(thiazol-2-yl)propanamide] the EC50 was ≤ 0.631 µM and the Emax was ≥ 119%.

In the case of `O=C(Nc1nccs1)[C@H](CC1CCCCC1)N1CCN(S(=O)(=O)c2ccc(-c3cnco3)s2)CC1=O` [Example 161, (S)-3-cyclohexyl-2-(4-(5-(oxazol-5-yl)thiophen-2-ylsulfonyl)-2-oxopiperazin-1-yl)-N-(thiazol-2-yl)propanamide], the EC50 is reported as 1.58 to 2.51 µM and the Emax is reported as 97.1 to 107%.

For `O=C(Nc1nccs1)[C@H](CC1CCCCC1)N1CCN(C(=O)Nc2ccc(C(F)(F)F)cc2)CC1=O` [Example 142, (S)-4-(3-cyclohexyl-1-oxo-1-(thiazol-2-ylamino)propan-2-yl)-3-oxo-N-(4-(trifluoromethyl)phenyl)piperazine-1-carboxamide], the EC50 was ≥ 3.16 µM and the Emax was ≤ 74%.

In the case of `O=C(Nc1nccs1)[C@H](CC1CCCCC1)N1CCN(C(=O)NC2CCCC2)CC1=O` [Example 140, (S)-4-(3-cyclohexyl-1-oxo-1-(thiazol-2-ylamino)propan-2-yl)-N-cyclopentyl-3-oxopiperazine-1-carboxamide], the EC50 is reported as ≥ 3.16 µM and the Emax is reported as 74.1 to 97%.

In the case of `N#Cc1cccc(NC(=S)N2CCN([C@@H](CC3CCCCC3)C(=O)Nc3nccs3)C(=O)C2)c1` [Example 116, (S)-2-(4-(3-cyanophenylcarbamothioyl)-2-oxopiperazin-1-yl)-3-cyclohexyl-N-(thiazol-2-yl)propanamide], the EC50 is reported as ≥ 3.16 µM and the Emax is reported as ≥ 119%.

For `COc1cc(C)c(S(=O)(=O)N2CCN([C@@H](CC3CCCCC3)C(=O)Nc3nccs3)C(=O)C2)c(C)c1C` [Example 182, (S)-3-cyclohexyl-2-(4-(4-methoxy-2,3,6-trimethylphenylsulfonyl)-2-oxopiperazin-1-yl)-N-(thiazol-2-yl)propanamide], the EC50 was 0.794 to 1.26 µM and the Emax was ≤ 74%.

`COc1ccc(S(=O)(=O)N2CCN([C@@H](CC3CCCCC3)C(=O)Nc3nccs3)C(=O)C2)cc1F` [Example 99, (S)-3-cyclohexyl-2-(4-(3-fluoro-4-methoxyphenylsulfonyl)-2-oxopiperazin-1-yl)-N-(thiazol-2-yl)propanamide] gave an EC50 of 0.794 to 1.26 µM and an Emax of 108 to 119%.

With `O=C(Nc1nccs1)[C@H](CC1CCCCC1)N1CCN(S(=O)(=O)Cc2ccc(Cl)cc2)CC1=O` [Example 69] the EC50 was 1.58 to 2.51 µM and the Emax was 97.1 to 107%.

In the case of `N#Cc1ccc(NC(=O)N2CCN([C@@H](CC3CCCCC3)C(=O)Nc3nccs3)C(=O)C2)cc1` [Example 132, (S)-N-(4-cyanophenyl)-4-(3-cyclohexyl-1-oxo-1-(thiazol-2-ylamino)propan-2-yl)-3-oxopiperazine-1-carboxamide], the EC50 is reported as ≥ 3.16 µM and the Emax is reported as ≤ 74%.

For `O=C(Nc1nccs1)[C@H](CC1CCCCC1)N1CCN(S(=O)(=O)c2ccc(Br)s2)CC1=O` [Example 203, (S)-2-(4-(5-bromothiophen-2-ylsulfonyl)-2-oxopiperazin-1-yl)-3-cyclohexyl-N-(thiazol-2-yl)propanamide], the EC50 was ≤ 0.631 µM and the Emax was 108 to 119%.

In the case of `O=C(Nc1nccs1)[C@H](CC1CCCCC1)N1CCN(S(=O)(=O)c2cc(F)cc(F)c2)CC1=O` [Example 105, (S)-3-cyclohexyl-2-(4-(3,5-difluorophenylsulfonyl)-2-oxopiperazin-1-yl)-N-(thiazol-2-yl)propanamide], the EC50 is reported as ≤ 0.631 µM and the Emax is reported as 97.1 to 107%.

In the case of `COc1ccc(Oc2cccc(S(=O)(=O)N3CCN([C@@H](CC4CCCCC4)C(=O)Nc4nccs4)C(=O)C3)c2)cc1` [Example 228, (S)-3-cyclohexyl-2-(4-(3-(4-methoxyphenoxy)phenylsulfonyl)-2-oxopiperazin-1-yl)-N-(thiazol-2-yl)propanamide], the EC50 is reported as 0.794 to 1.26 µM and the Emax is reported as ≤ 74%.

For `COc1ccc(S(=O)(=O)N2CCN([C@@H](CC3CCCCC3)C(=O)Nc3nccs3)C(=O)C2)cc1` [Example 46, (S)-3-cyclohexyl-2-(4-(4-methoxyphenylsulfonyl)-2-oxopiperazin-1-yl)-N-(thiazol-2-yl)propanamide], the EC50 was 0.794 to 1.26 µM and the Emax was 97.1 to 107%.

In the case of `O=C(Nc1nccs1)[C@H](CC1CCCCC1)N1CCN(S(=O)(=O)c2ccc(Oc3ccccc3)nc2)CC1=O` [Example 209, (S)-3-cyclohexyl-2-(2-oxo-4-(6-phenoxypyridin-3-ylsulfonyl)piperazin-1-yl)-N-(thiazol-2-yl)propanamide], the EC50 is reported as 1.58 to 2.51 µM and the Emax is reported as ≤ 74%.

— patent publication US8173645B2 (Takeda San Diego, Inc., priority 2007, dated 2012)
